Reference: the NIST ThermoML archive (doi:10.1021/je0202073)
Numbers after ± are expanded uncertainties.

What was measured:
[1] = xn = mol fraction of the nth substance listed; conditions: 101.3 kPa, Liquid
[2] = excess molar enthalpy (molar enthalpy of mixing); xn = mol fraction of the nth substance listed; conditions: 101.3 kPa, Liquid, Calvet calorimetry

CCCC(=O)OCC [ethyl butanoate] + CC(C)(C)O
Conditions | excess molar enthalpy [kJ/mol] | excess molar volume [m3/mol]
[1], 303.15 K, x1 = 0.0445 | – | 9.2e-07 ± 6e-08
[1], 303.15 K, x1 = 0.0966 | – | 2.08e-06 ± 7e-08
[1], 303.15 K, x1 = 0.1518 | – | 3.11e-06 ± 7e-08
[1], 303.15 K, x1 = 0.1999 | – | 3.83e-06 ± 7e-08
[1], 303.15 K, x1 = 0.2466 | – | 4.41e-06 ± 8e-08
[1], 303.15 K, x1 = 0.3111 | – | 5.13e-06 ± 8e-08
[1], 303.15 K, x1 = 0.3504 | – | 5.6e-06 ± 8e-08
[1], 303.15 K, x1 = 0.4043 | – | 5.91e-06 ± 9e-08
[1], 303.15 K, x1 = 0.4468 | – | 6.09e-06 ± 9e-08
[1], 303.15 K, x1 = 0.4837 | – | 6.11e-06 ± 9e-08
[1], 303.15 K, x1 = 0.5015 | – | 6.11e-06 ± 9e-08
[1], 303.15 K, x1 = 0.5259 | – | 6.07e-06 ± 9e-08
[1], 303.15 K, x1 = 0.5538 | – | 5.99e-06 ± 9e-08
[1], 303.15 K, x1 = 0.6004 | – | 5.74e-06 ± 9e-08
[1], 303.15 K, x1 = 0.6399 | – | 5.5e-06 ± 8e-08
[1], 303.15 K, x1 = 0.663 | – | 5.23e-06 ± 8e-08
[1], 303.15 K, x1 = 0.7129 | – | 4.83e-06 ± 8e-08
[1], 303.15 K, x1 = 0.7538 | – | 4.33e-06 ± 8e-08
[1], 303.15 K, x1 = 0.7934 | – | 3.77e-06 ± 7e-08
[1], 303.15 K, x1 = 0.8465 | – | 2.99e-06 ± 7e-08
[1], 303.15 K, x1 = 0.9017 | – | 2e-06 ± 6e-08
[1], 303.15 K, x1 = 0.9614 | – | 8.2e-07 ± 6e-08
[1], 318.15 K, x1 = 0.0604 | – | 1.83e-06 ± 6e-08
[1], 318.15 K, x1 = 0.1099 | – | 2.85e-06 ± 7e-08
[1], 318.15 K, x1 = 0.1559 | – | 3.63e-06 ± 7e-08
[1], 318.15 K, x1 = 0.2141 | – | 4.45e-06 ± 8e-08
[1], 318.15 K, x1 = 0.265 | – | 5.17e-06 ± 8e-08
[1], 318.15 K, x1 = 0.2982 | – | 5.41e-06 ± 8e-08
[1], 318.15 K, x1 = 0.3386 | – | 5.74e-06 ± 9e-08
[1], 318.15 K, x1 = 0.39 | – | 6.14e-06 ± 9e-08
[1], 318.15 K, x1 = 0.4477 | – | 6.44e-06 ± 9e-08
[1], 318.15 K, x1 = 0.4595 | – | 6.5e-06 ± 9e-08
[1], 318.15 K, x1 = 0.4778 | – | 6.53e-06 ± 9e-08
[1], 318.15 K, x1 = 0.4982 | – | 6.55e-06 ± 9e-08
[1], 318.15 K, x1 = 0.4996 | – | 6.56e-06 ± 9e-08
[1], 318.15 K, x1 = 0.5163 | – | 6.56e-06 ± 9e-08
[1], 318.15 K, x1 = 0.5222 | – | 6.55e-06 ± 9e-08
[1], 318.15 K, x1 = 0.5936 | – | 6.38e-06 ± 9e-08
[1], 318.15 K, x1 = 0.6597 | – | 6.03e-06 ± 9e-08
[1], 318.15 K, x1 = 0.7011 | – | 5.73e-06 ± 9e-08
[1], 318.15 K, x1 = 0.745 | – | 5.15e-06 ± 8e-08
[1], 318.15 K, x1 = 0.7968 | – | 4.5e-06 ± 8e-08
[1], 318.15 K, x1 = 0.8396 | – | 3.81e-06 ± 8e-08
[1], 318.15 K, x1 = 0.8701 | – | 3.15e-06 ± 7e-08
[1], 318.15 K, x1 = 0.9283 | – | 2.01e-06 ± 6e-08
[2], 299.15 K, x1 = 0.0438 | 0.252 ± 0.011 | –
[2], 299.15 K, x1 = 0.0937 | 0.516 ± 0.012 | –
[2], 299.15 K, x1 = 0.1461 | 0.779 ± 0.014 | –
[2], 299.15 K, x1 = 0.1991 | 1.04 ± 0.016 | –
[2], 299.15 K, x1 = 0.2541 | 1.24 ± 0.017 | –
[2], 299.15 K, x1 = 0.3061 | 1.41 ± 0.019 | –
[2], 299.15 K, x1 = 0.3568 | 1.55 ± 0.02 | –
[2], 299.15 K, x1 = 0.4053 | 1.64 ± 0.021 | –
[2], 299.15 K, x1 = 0.4331 | 1.7 ± 0.021 | –
[2], 299.15 K, x1 = 0.4818 | 1.74 ± 0.022 | –
[2], 299.15 K, x1 = 0.5387 | 1.75 ± 0.022 | –
[2], 299.15 K, x1 = 0.6024 | 1.71 ± 0.021 | –
[2], 299.15 K, x1 = 0.6746 | 1.6 ± 0.02 | –
[2], 299.15 K, x1 = 0.7522 | 1.39 ± 0.019 | –
[2], 299.15 K, x1 = 0.833 | 1.05 ± 0.016 | –
[2], 299.15 K, x1 = 0.9172 | 0.599 ± 0.013 | –
[2], 318.15 K, x1 = 0.0394 | 0.293 ± 0.011 | –
[2], 318.15 K, x1 = 0.0951 | 0.577 ± 0.012 | –
[2], 318.15 K, x1 = 0.158 | 0.851 ± 0.014 | –
[2], 318.15 K, x1 = 0.2201 | 1.09 ± 0.016 | –
[2], 318.15 K, x1 = 0.2807 | 1.31 ± 0.018 | –
[2], 318.15 K, x1 = 0.3377 | 1.46 ± 0.019 | –
[2], 318.15 K, x1 = 0.385 | 1.57 ± 0.02 | –
[2], 318.15 K, x1 = 0.4267 | 1.64 ± 0.021 | –
[2], 318.15 K, x1 = 0.4576 | 1.69 ± 0.021 | –
[2], 318.15 K, x1 = 0.4628 | 1.69 ± 0.021 | –
[2], 318.15 K, x1 = 0.4938 | 1.72 ± 0.022 | –
[2], 318.15 K, x1 = 0.5386 | 1.74 ± 0.022 | –
[2], 318.15 K, x1 = 0.5934 | 1.71 ± 0.022 | –
[2], 318.15 K, x1 = 0.6595 | 1.62 ± 0.021 | –
[2], 318.15 K, x1 = 0.7407 | 1.41 ± 0.019 | –
[2], 318.15 K, x1 = 0.8336 | 1.04 ± 0.016 | –
[2], 318.15 K, x1 = 0.9223 | 0.57 ± 0.013 | –
